Measured values: patent US20220389058A1, “PEPTIDES AND COMPOSITIONS FOR USE IN COSMETICS AND MEDICINE” (LIPOTRUE, S.L., priority 2019, published 2022)

Key:
[1] = test system: Human Epidermal Keratinocytes (HEKa); assay: Innate antimicrobial immunity related genes, RT-qPCR in HEKa (Example 20); assay type: cell-based; conditions: 0.01 mg/mL, 6 h
[2] = test system: human skin explants; assay: Ex vivo fibrillin-1 immunostaining after methylglyoxal (Example 15); conditions: cream containing 1% Ac-SEQ ID NO: 1-NH2, topical 2 mg/cm^2; methylglyoxal 500 μM; day 9
Protocol: Briefly, human skin explants from a person were kept in survival in BEM culture medium at 37° C. in a humid, 5% CO2 atmosphere. A placebo cream and a cream containing 1% Ac-SEQ ID NO: 1-NH2, prepared according to Example 6, were applied topically on the basis of 2 μL per explant (2mg/cm^2) and spread using a small spatula on day 0 (DO), day 1, day 4, day 6 and day 8. […] To induce glycation, a solution of Methylglyoxal (MG) was incorporated in the BEM culture medium at a final concentration of 500 μM on day 4, day 6 and day 8, on the concerned batches “MG” (all samples except control untreated samples). Explants were collected at each timepoint and cut in two parts. Half was fixed in buffered formalin solution and half was frozen at −80° C.
The nuclei were counterstained with propidium iodide.

[3] = test system: HDFa cells; assay: Genes related with response to sleep deprivation, RT-qPCR in HDFa (Example 16); assay type: cell-based, Human; conditions: 0.01 mg/ml, 24 hours
Protocol: (§1) A stock solution of the peptide was prepared in water at 1 mg/mL. Working solution was freshly prepared at the specified concentration from stock solution in the corresponding supplemented medium.
RNA (ribonucleic acid) extraction and RT-qPCR (reverse transcription quantitative polymerase chain reaction) were performed. […]
(§2) Cells were finally lysed, and replicates were pooled together for RNA extraction using Qiagen RNeasy Mini kit following manufacturer's instructions. […] (Annealing and extension) (Arya, M., Shergill, I. S., Williamson, M., Gommersall, L., Arya, N., Patel, H. R. (2005) Basic principles of real-time quantitative PCR. Expert Rev. Mol. Diagn.; 5(2):209-19; and Jozefczuk, J. and Adjaye, J. (2011) Quantitative real-time PCR-based analysis of gene expression. Methods Enzymol. 500; 99-109).
(§3) The obtained data was analysed using the ΔΔCt method, which provides the target gene expression values as fold changes in the treated sample compared with an untreated basal sample. […]

[4] = test system: IL33; assay: IL33 expression modulation by RT-qPCR in HDFa cells (Example 7); assay type: cell-based, Human; conditions: 0.01 mg/mL, 24 hours
Protocol: as §1
RNA (ribonucleic acid) extraction and RT-qPCR (reverse transcription quantitative polymerase chain reaction) were performed. Briefly, HDFa and HEKa cells were seeded in duplicate (n=2) in 6-well plates at a density of 4×10^5 cells/well and maintained at standard culture conditions (106 Medium supplemented with 1% (v/v) LSGS for HDFa cells; Medium Epilife supplemented with 1% (v/v) EDGS and 1% (v/v) penicillin/streptomycin for HEKa cells; 37° C., 95% room humidity, 5% CO2) for 24 hours. […]
as §2, §3

[5] = Lipid peroxidation, TBARS assay (Example 13); assay type: biochemical; conditions: 0.01, 0.05, 0.1 and 0.5 mg/mL; 2 hours at 37° C.; vs negative control
Protocol: Briefly, Trolox (positive control), 0.01, 0.05, 0.1 and 0.5 mg/mL of peptide Ac-SEQ ID NO: 1-NH2 in presence of small unilamellar vesicles of egg yolk phosphatidylcholine (EYPC), a substrate for lipid peroxidation were incubated for 2 hours at 37° C. in the presence of thiobarbituric acid (TBA). A fluorimetric method was used to evaluate the % of lipid peroxidation compared to the negative control (sample only with small unilamellar vesicles of egg yolk phosphatidylcholine).

[6] = test system: human skin explants; assay: Ex vivo methylglyoxal-induced glycation, CML immunostaining (Example 14); conditions: cream containing 1% (w/v) Ac-SEQ ID NO: 1-NH2, topical 2 mg/cm^2; methylglyoxal 500 μM; after 9 days of culture
Protocol: Briefly, human skin explants from a person were kept in survival in BEM culture medium at 37° C. in a humid, 5% CO2 atmosphere. […] Explants were collected at each timepoint and cut in two parts. Half was fixed in buffered formalin solution and half was frozen at −80° C.
After fixation for 24 hours in buffered formalin, the samples were dehydrated and impregnated in paraffin. 5-μm-thick sections were made using a Leica RM 2125 Minot-type microtome, and the sections were mounted on Superfrost® histological glass slides.

## Ac-Arg-Arg-Gln-Met-Arg-Glu-NH2 (Ac-RRQMRE-NH2) [Ac-SEQ ID NO: 1-NH2]
[1]
  DEFB1 Fold change vs. Basal: 1.31 Fold change
  DEFB4A Fold change vs. Basal: 1.58 Fold change
  IRF1 Fold change vs. Basal: 1.25 Fold change
  IRF3 Fold change vs. Basal: 1.54 Fold change
  ISG15 Fold change vs. Basal: 1.38 Fold change
  MX1 Fold change vs. Basal: 1.93 Fold change
  OAS2 Fold change vs. Basal: 1.39 Fold change
  S100A7 Fold change vs. Basal: 2.04 Fold change
[2]
  increase in fibrillin 1 staining when compared with the MG-exposed untreated control: 86%
[3]
  IL1RL1 Fold change between treated cells and basal control: −1.26 Fold change
[4]
  IL33 expression, fold change treated cells with regard to basal control: −1.22 fold change
[5]
  lipid peroxidation (TBARS): able to protect from lipid peroxidation
[6]
  decrease in CML signal when compared with MG-exposed untreated explants: −73%
